Measured values as given in patent US20230085307A1, “PYRIDAZINONE COMPOUND AND HERBICIDE” (NISSAN CHEMICAL CORPORATION, priority 2019, published 2023).

Key:
redroot pigweed [1] = assay: Test Example 5: herbicidal effect by foliage application, plastic box (Table 20, symbol N); format: in vivo, redroot pigweed (Amaranthus retroflexus); conditions: foliage application
Summary of the method: (§1)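 Sow seeds spot-wise in sterilized diluvial soil; cover with ~1.5 cm soil. Grow 14 days in greenhouse, 25° C. to 30° C. Spray foliage with emulsion diluted to predetermined amount. Rate effect after 3 weeks.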

redroot pigweed [2] = assay: Test Example 4: herbicidal effect by soil treatment (Table 19, symbol N); format: in vivo, redroot pigweed (Amaranthus retroflexus)
Summary of the method: (§2)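 Applied as a water-diluted emulsion, the compound was sprayed onto soil covering newly sown seeds. Evaluation came three weeks after application, in a greenhouse held at 25° C. to 30° C.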

lambsquarters [3] = assay: Test Example 5: herbicidal effect by foliage application, plastic box (Table 20, symbol O); format: in vivo, lambsquarters (Chenopodium album); conditions: foliage application
Summary of the method: as §1

southern crabgrass [4] = assay: Test Example 5: herbicidal effect by foliage application, plastic box (Table 20, symbol F); format: in vivo, southern crabgrass (Digitaria ciliaris); conditions: foliage application
Summary of the method: as §1

blackgrass [5] = assay: Test Example 4: herbicidal effect by soil treatment (Table 19, symbol J); format: in vivo, blackgrass (Alopecurus myosuroides)
Summary of the method: as §2

lambsquarters [6] = assay: Test Example 4: herbicidal effect by soil treatment (Table 19, symbol O); format: in vivo, lambsquarters (Chenopodium album)
Summary of the method: as §2

barnyard grass [7] = assay: Test Example 3: herbicidal effect by foliage application, Wagner pot (Table 18, symbol H); format: in vivo, barnyard grass (Echinochloa crus-galli); conditions: 320 g/ha
Summary of the method: (§3)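 Plants were sown in alluvial soil held under 0.1–0.5 cm standing water and grown 14 days in a greenhouse at 25–30 °C. An emulsifiable formulation, water-diluted to the set dose, was then sprayed onto the foliage, and effects were scored three weeks later using previously defined criteria.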

barnyard grass [8] = assay: Test Example 5: herbicidal effect by foliage application, plastic box (Table 20, symbol H); format: in vivo, barnyard grass (Echinochloa crus-galli); conditions: foliage application
Summary of the method: as §1

wild oat [9] = assay: Test Example 5: herbicidal effect by foliage application, plastic box (Table 20, symbol I); format: in vivo, wild oat (Avena fatua); conditions: foliage application
Summary of the method: as §1

windgrass [10] = assay: Test Example 4: herbicidal effect by soil treatment (Table 19, symbol L); format: in vivo, windgrass (Apera spica-venti)
Summary of the method: as §2

false cleavers = assay: Test Example 4: herbicidal effect by soil treatment (Table 19, symbol Q); format: in vivo, false cleavers (Galium spurium)
Summary of the method: as §2

wild oat [11] = assay: Test Example 4: herbicidal effect by soil treatment (Table 19, symbol I); format: in vivo, wild oat (Avena fatua)
Summary of the method: as §2

velvetleaf [12] = assay: Test Example 5: herbicidal effect by foliage application, plastic box (Table 20, symbol M); format: in vivo, velvetleaf (Abutilon theophrasti); conditions: foliage application
Summary of the method: as §1

barnyard grass [13] = assay: Test Example 4: herbicidal effect by soil treatment (Table 19, symbol H); format: in vivo, barnyard grass (Echinochloa crus-galli)
Summary of the method: as §2

persian speedwell [14] = assay: Test Example 5: herbicidal effect by foliage application, plastic box (Table 20, symbol R); format: in vivo, Persian speedwell (Veronica persica); conditions: foliage application
Summary of the method: as §1

windgrass [15] = assay: Test Example 5: herbicidal effect by foliage application, plastic box (Table 20, symbol L); format: in vivo, windgrass (Apera spica-venti); conditions: foliage application
Summary of the method: as §1

chickweed [16] = assay: Test Example 4: herbicidal effect by soil treatment (Table 19, symbol P); format: in vivo, common chickweed (Stellaria media)
Summary of the method: as §2

Italian ryegrass [17] = assay: Test Example 5: herbicidal effect by foliage application, plastic box (Table 20, symbol K); format: in vivo, Italian ryegrass (Lolium multiflorum); conditions: foliage application
Summary of the method: as §1

chickweed [18] = assay: Test Example 5: herbicidal effect by foliage application, plastic box (Table 20, symbol P); format: in vivo, common chickweed (Stellaria media); conditions: foliage application
Summary of the method: as §1

Italian ryegrass [19] = assay: Test Example 4: herbicidal effect by soil treatment (Table 19, symbol K); format: in vivo, Italian ryegrass (Lolium multiflorum)
Summary of the method: as §2

green foxtail [20] = assay: Test Example 5: herbicidal effect by foliage application, plastic box (Table 20, symbol G); format: in vivo, green foxtail (Setaria viridis); conditions: foliage application
Summary of the method: as §1

persian speedwell [21] = assay: Test Example 4: herbicidal effect by soil treatment (Table 19, symbol R); format: in vivo, Persian speedwell (Veronica persica)
Summary of the method: as §2

southern crabgrass [22] = assay: Test Example 4: herbicidal effect by soil treatment (Table 19, symbol F); format: in vivo, southern crabgrass (Digitaria ciliaris)
Summary of the method: as §2

blackgrass [23] = assay: Test Example 5: herbicidal effect by foliage application, plastic box (Table 20, symbol J); format: in vivo, blackgrass (Alopecurus myosuroides); conditions: foliage application
Summary of the method: as §1

green foxtail [24] = assay: Test Example 4: herbicidal effect by soil treatment (Table 19, symbol G); format: in vivo, green foxtail (Setaria viridis)
Summary of the method: as §2

rice flat sedge = assay: Test Example 3: herbicidal effect by foliage application, Wagner pot (Table 18, symbol E); format: in vivo, rice flat sedge (Cyperus iria); conditions: 320 g/ha
Summary of the method: as §3

Chinese sprangletop = assay: Test Example 3: herbicidal effect by foliage application, Wagner pot (Table 18, symbol D); format: in vivo, chinese sprangletop (Leptochloa chinensis); conditions: 320 g/ha
Summary of the method: as §3

velvetleaf [25] = assay: Test Example 4: herbicidal effect by soil treatment (Table 19, symbol M); format: in vivo, velvetleaf (Abutilon theophrasti)
Summary of the method: as §2

[26] = AAH 320 g/ha, three weeks after application
[27] = amount of applied herbicide 320 g/ha
[28] = 320 g/ha, evaluated three weeks after application

CCCC(=O)Oc1c(C)nn(C)c(=O)c1-c1c(-n2cc(Cl)cn2)sc2ccccc12 [Compound No. 1-098, 1,3-dimethyl-6-oxo-5-(2-(4-chloro-1H-pyrazol-1-yl)benzo[b]thiophen-3-yl)-1,6-dihydropyridazin-4-yl=(n-butyrate)]
N: redroot pigweed, herbicidal effect (redroot pigweed [1]; [26]): 5 (Herbicidal rate of 90% or more (almost completely withered))
herbicidal effect rating, N: redroot pigweed (redroot pigweed [2]; [27]): 0 (Herbicidal rate of 5% or less (almost no effect))
O: lambsquarters, herbicidal effect (lambsquarters [3]; [26]): 5 (Herbicidal rate of 90% or more (almost completely withered))
F: southern crabgrass, herbicidal effect (southern crabgrass [4]; [26]): 0 (Herbicidal rate of 5% or less (almost no effect))
herbicidal effect rating, J: blackgrass (blackgrass [5]; [27]): 0 (Herbicidal rate of 5% or less (almost no effect))
herbicidal effect rating, O: lambsquarters (lambsquarters [6]; [27]): 4 (Herbicidal rate of 70% or more and less than 90%)
herbicidal effect on H (barnyard grass), rating 0-5 (barnyard grass [7]): 0 (Herbicidal rate of 5% or less (almost no effect))
H: barnyard grass, herbicidal effect (barnyard grass [8]; [26]): 3 (Herbicidal rate of 40% or more and less than 70%)
I: wild oat, herbicidal effect (wild oat [9]; [26]): 0 (Herbicidal rate of 5% or less (almost no effect))
herbicidal effect rating, L: windgrass (windgrass [10]; [27]): 0 (Herbicidal rate of 5% or less (almost no effect))
herbicidal effect rating, Q: false cleavers (false cleavers; [27]): 0 (Herbicidal rate of 5% or less (almost no effect))
herbicidal effect rating, I: wild oat (wild oat [11]; [27]): 0 (Herbicidal rate of 5% or less (almost no effect))
M: velvetleaf, herbicidal effect (velvetleaf [12]; [26]): 0 (Herbicidal rate of 5% or less (almost no effect))
herbicidal effect rating, H: barnyard grass (barnyard grass [13]; [27]): 0 (Herbicidal rate of 5% or less (almost no effect))
R: persian speedwell, herbicidal effect (persian speedwell [14]; [26]): 3 (Herbicidal rate of 40% or more and less than 70%)
L: windgrass, herbicidal effect (windgrass [15]; [26]): 0 (Herbicidal rate of 5% or less (almost no effect))
herbicidal effect rating, P: chickweed (chickweed [16]; [27]): 3 (Herbicidal rate of 40% or more and less than 70%)
K: Italian ryegrass, herbicidal effect (Italian ryegrass [17]; [26]): 2 (Herbicidal rate of 20% or more and less than 40%)
P: chickweed, herbicidal effect (chickweed [18]; [26]): 5 (Herbicidal rate of 90% or more (almost completely withered))
herbicidal effect rating, K: Italian ryegrass (Italian ryegrass [19]; [27]): 0 (Herbicidal rate of 5% or less (almost no effect))
G: green foxtail, herbicidal effect (green foxtail [20]; [26]): 2 (Herbicidal rate of 20% or more and less than 40%)
herbicidal effect rating, R: persian speedwell (persian speedwell [21]; [27]): 0 (Herbicidal rate of 5% or less (almost no effect))
herbicidal effect rating, F: southern crabgrass (southern crabgrass [22]; [27]): 0 (Herbicidal rate of 5% or less (almost no effect))
J: blackgrass, herbicidal effect (blackgrass [23]; [26]): 0 (Herbicidal rate of 5% or less (almost no effect))
herbicidal effect rating, G: green foxtail (green foxtail [24]; [27]): 0 (Herbicidal rate of 5% or less (almost no effect))
herbicidal effect on E (rice flat sedge), rating 0-5 (rice flat sedge): 4 (Herbicidal rate of 70% or more and less than 90%)
herbicidal effect on D (Chinese sprangletop), rating 0-5 (Chinese sprangletop): 0 (Herbicidal rate of 5% or less (almost no effect))
herbicidal effect rating, M: velvetleaf (velvetleaf [25]; [27]): 3 (Herbicidal rate of 40% or more and less than 70%)

Cc1nn(C)c(=O)c(-c2c(-c3ccc(F)cc3)sc3ccc(Cl)cc23)c1O [2-097]
herbicidal effect on N: redroot pigweed (redroot pigweed [1]; [28]): 5 (Herbicidal rate of 90% or more (almost completely withered))
herbicidal effect rating, N: redroot pigweed (redroot pigweed [2]; 320 g/ha): 5 (Herbicidal rate of 90% or more (almost completely withered))
herbicidal effect on O: lambsquarters (lambsquarters [3]; [28]): 5 (Herbicidal rate of 90% or more (almost completely withered))
herbicidal effect on F: southern crabgrass (southern crabgrass [4]; [28]): 5 (Herbicidal rate of 90% or more (almost completely withered))
herbicidal effect rating, J: blackgrass (blackgrass [5]; 320 g/ha): 5 (Herbicidal rate of 90% or more (almost completely withered))
herbicidal effect rating, O: lambsquarters (lambsquarters [6]; 320 g/ha): 5 (Herbicidal rate of 90% or more (almost completely withered))
herbicidal effect on H (barnyard grass), rating 0-5 (barnyard grass [7]): 5 (Herbicidal rate of 90% or more (almost completely withered))
herbicidal effect on H: barnyard grass (barnyard grass [8]; [28]): 5 (Herbicidal rate of 90% or more (almost completely withered))
herbicidal effect on I: wild oat (wild oat [9]; [28]): 5 (Herbicidal rate of 90% or more (almost completely withered))
herbicidal effect rating, L: windgrass (windgrass [10]; 320 g/ha): 5 (Herbicidal rate of 90% or more (almost completely withered))
herbicidal effect rating, Q: false cleavers (false cleavers; 320 g/ha): 4 (Herbicidal rate of 70% or more and less than 90%)
herbicidal effect rating, I: wild oat (wild oat [11]; 320 g/ha): 1 (Herbicidal rate of 5% or more and less than 20%)
herbicidal effect on M: velvetleaf (velvetleaf [12]; [28]): 5 (Herbicidal rate of 90% or more (almost completely withered))
herbicidal effect rating, H: barnyard grass (barnyard grass [13]; 320 g/ha): 3 (Herbicidal rate of 40% or more and less than 70%)
herbicidal effect on R: persian speedwell (persian speedwell [14]; [28]): 5 (Herbicidal rate of 90% or more (almost completely withered))
herbicidal effect on L: windgrass (windgrass [15]; [28]): 5 (Herbicidal rate of 90% or more (almost completely withered))
herbicidal effect rating, P: chickweed (chickweed [16]; 320 g/ha): 5 (Herbicidal rate of 90% or more (almost completely withered))
herbicidal effect on K: Italian ryegrass (Italian ryegrass [17]; [28]): 5 (Herbicidal rate of 90% or more (almost completely withered))
herbicidal effect on P: chickweed (chickweed [18]; [28]): 5 (Herbicidal rate of 90% or more (almost completely withered))
herbicidal effect rating, K: Italian ryegrass (Italian ryegrass [19]; 320 g/ha): 5 (Herbicidal rate of 90% or more (almost completely withered))
herbicidal effect on G: green foxtail (green foxtail [20]; [28]): 5 (Herbicidal rate of 90% or more (almost completely withered))
herbicidal effect rating, R: persian speedwell (persian speedwell [21]; 320 g/ha): 5 (Herbicidal rate of 90% or more (almost completely withered))
herbicidal effect rating, F: southern crabgrass (southern crabgrass [22]; 320 g/ha): 2 (Herbicidal rate of 20% or more and less than 40%)
herbicidal effect on J: blackgrass (blackgrass [23]; [28]): 5 (Herbicidal rate of 90% or more (almost completely withered))
herbicidal effect rating, G: green foxtail (green foxtail [24]; 320 g/ha): 3 (Herbicidal rate of 40% or more and less than 70%)
herbicidal effect on E (rice flat sedge), rating 0-5 (rice flat sedge): 4 (Herbicidal rate of 70% or more and less than 90%)
herbicidal effect on D (Chinese sprangletop), rating 0-5 (Chinese sprangletop): 3 (Herbicidal rate of 40% or more and less than 70%)
herbicidal effect rating, M: velvetleaf (velvetleaf [25]; 320 g/ha): 3 (Herbicidal rate of 40% or more and less than 70%)
